Reference: US20250003011A1, “SAMPLE PREPARATION METHODS USING MODIFIED BASES FOR RAPID IDENTIFICATION AND SEQUENCING” (priority 2023, published 2025)

Columns and labels:
MANTA polymerase [1] = target: T1, MANTA polymerase (Geobacillus stearothermophilus, UniProt P52026); experiment: Measurement of the KD of modified uridine triphosphates, single-adenine template, FITC primer, PAGE; conditions: 65° C., 2 minutes; 100 μM dATP, dCTP, dGTP; no dTTP
T1 sequence (P52026 289-876 limits assumed): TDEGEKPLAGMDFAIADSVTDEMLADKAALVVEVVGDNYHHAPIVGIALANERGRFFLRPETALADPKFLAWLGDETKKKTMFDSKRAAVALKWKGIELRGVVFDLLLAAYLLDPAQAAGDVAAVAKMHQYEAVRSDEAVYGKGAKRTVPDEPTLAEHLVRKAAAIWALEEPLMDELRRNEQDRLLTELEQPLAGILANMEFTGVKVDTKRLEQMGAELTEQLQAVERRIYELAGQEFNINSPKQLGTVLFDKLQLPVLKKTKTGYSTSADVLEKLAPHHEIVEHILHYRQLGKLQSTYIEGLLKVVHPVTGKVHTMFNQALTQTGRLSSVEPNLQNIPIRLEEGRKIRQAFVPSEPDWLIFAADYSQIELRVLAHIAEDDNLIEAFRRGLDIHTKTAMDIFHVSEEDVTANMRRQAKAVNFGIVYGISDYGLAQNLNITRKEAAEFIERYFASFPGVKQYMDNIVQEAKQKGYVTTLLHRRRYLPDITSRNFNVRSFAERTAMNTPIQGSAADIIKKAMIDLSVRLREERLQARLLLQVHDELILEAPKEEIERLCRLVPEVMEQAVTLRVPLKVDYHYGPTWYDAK
Experimental: The reaction was supplemented with dATP, dCTP and dGTP as well as the uridine triphosphate tested (no dTTP was added to the reaction).
The KD is defined as the concentration of the modified dUTP required to produce 50% of fill in reaction. […] We then produced a second, simpler template comprising only one adenine in the template followed by 15 random bases excluding adenine (PS2972, SEQ ID NO:3). The template was designed such that the 3′ end of the complementary oligonucleotide tagged with FITC (PS1289, SEQ ID NO:4) ends at the base just before the adenine in the 32-base oligonucleotide. After annealing of these two oligonucleotides, there is thus only one A position where modified dUTP could be inserted (see FIG. 2A).
It was expected that if dCTP, dATP and dGTP were present in the reaction mix along with one of the modified uridine triphosphates, if the modified uridine was integrated by the polymerase, 16 bases would be added, thereby yielding a 32 base-long oligonucleotide tagged with FITC. […]
Polymerisation reactions were prepared with the Manta polymerase. […] Fluorescence of the reaction products were then quantified with ImageJ (National Institutes of Health).
For each modified uridine triphosphate, the ratio of fully extended product over the total amount of FITC-labelled oligonucleotide was calculated and plotted on a graph as a function of the concentration. […]

MANTA polymerase [2] = target: T1, MANTA polymerase; experiment: Incorporation of two modified nucleotides in one fill-in reaction, distribution detected by antibodies on hairpins; format: biochemical; design: Bst DNA Polymerase, Large Fragment (e.g., Manta®); purchased; conditions: iodo-dUTP 5 μM and pseudo-dUTP 95 μM replacing dTTP; anti-iodouridine and anti-pseudouridine antibodies
Description: After synthesis, the hairpin was assembled and assessed with both anti-iodouridine antibody and anti-pseudouridine antibody.
FIG. 4B: For each molecule, we counted the number of positions detected by either the anti-IdU or anti-pseudouridine over the expected total number of positions for this sequence. We then plotted the distribution of each modification for all the functional molecules.
One of the 50 long oligonucleotides described in Example 3 was used as a template to incorporate two different modified nucleotides at the same time. Both iodo-dUTP as well as pseudo-dUTP were included in the nucleotide mix (at 5 μM and 95 μM respectively) during the replication step to completely replace the natural base dTTP. After synthesis of the complementary strand, the hairpin was assembled and assessed with both anti-iodouridine antibody (clone OTI2F8 from Abcam) and anti-pseudouridine antibody (Cat. No. C15200236, Diagenode) (FIG. 4A).
The distribution of each modified base in the hairpin was determined for each modification (FIG. 4B).

DeepVent DNA polymerase = target: T2, DeepVent DNA polymerase (Pyrococcus sp., UniProt Q51334, DEL493-1029); experiment: Elongation (fill-in) assay on 200-mer template with modified uridine triphosphates; format: biochemical; conditions: modified nucleotide replaces dTTP at 100%; 72° C., 30 min
T2 construct: purchased
T2 sequence (Q51334 other isoform, or with tags, fused parts or gaps DEL493-1029): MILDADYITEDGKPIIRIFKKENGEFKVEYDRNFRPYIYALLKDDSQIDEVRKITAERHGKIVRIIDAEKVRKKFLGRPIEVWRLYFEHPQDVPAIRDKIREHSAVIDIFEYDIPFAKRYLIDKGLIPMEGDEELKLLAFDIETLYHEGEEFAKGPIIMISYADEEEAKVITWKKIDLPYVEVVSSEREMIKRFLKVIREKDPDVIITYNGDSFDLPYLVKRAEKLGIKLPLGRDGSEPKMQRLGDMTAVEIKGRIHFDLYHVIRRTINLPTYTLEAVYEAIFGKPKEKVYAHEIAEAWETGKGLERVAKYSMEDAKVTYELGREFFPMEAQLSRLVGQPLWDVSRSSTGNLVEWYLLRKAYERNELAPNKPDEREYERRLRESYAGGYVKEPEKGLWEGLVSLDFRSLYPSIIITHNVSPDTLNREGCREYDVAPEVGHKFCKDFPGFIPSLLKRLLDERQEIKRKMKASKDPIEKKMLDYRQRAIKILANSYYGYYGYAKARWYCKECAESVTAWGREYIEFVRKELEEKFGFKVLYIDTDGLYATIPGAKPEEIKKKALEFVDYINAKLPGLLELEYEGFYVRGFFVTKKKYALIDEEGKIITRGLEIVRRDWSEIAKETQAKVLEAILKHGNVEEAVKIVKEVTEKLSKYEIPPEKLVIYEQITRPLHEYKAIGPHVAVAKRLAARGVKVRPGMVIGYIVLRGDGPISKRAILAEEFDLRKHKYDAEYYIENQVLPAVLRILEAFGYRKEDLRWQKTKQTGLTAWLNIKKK
Experimental: (§1) A synthetic template of 200 bases was used to determine the capacity of Deep Vent and Manta DNA polymerase to integrate modified uridine triphosphate. The synthesis was initiated from a 20 bases complementary oligonucleotide and various conditions were tested. In lanes 1 and 6, all triphosphate nucleotide except dTTP were added in the reaction mix according to the manufacturer recommendation (negative control) to determine if the polymerase is stopped at positions where it needs to integrate a thymidine. In lane 2, dTTP was added to the reaction mix as the positive control where full length construct should be obtained. In lanes 3 and 7, 4 and 8 and 5 and 9, IdU, FdU and CldU were added to the reaction mix respectively to replace at 100% the dTTP. […] This is not the case for the Manta DNA polymerase as the only product observed is where the polymerase should have integrated a thymidine.
(§2) In order to identify the proper DNA polymerase that can utilise modified uridine triphosphate, we performed an elongation assay with different DNA polymerases and various combination of nucleotide mixes, using a 22-mer primer (PS2508, SEQ ID NO: 1) annealed to a 200-mer template (PS2509, SEQ ID NO:2). As the template contains a lot of instances of adenines, there are multiple positions where the polymerase must be able to incorporate uridine to be able to produce full length fill in reaction.
(§3) On the other hand, when dTTP or dUTP was replaced with a modified dUTP, a full-length reaction product was detected for both Manta™ and DeepVent DNA polymerases.
(§4) The conditions for the fill in reaction were as follow: dATP, dGTP, dCTP and Iodo dUTP were prepared in a mix at 500 μM each and used at a final concentration of 100 μM final; 1 μl of Manta™ or DeepVent polymerase were used on 10 pmoles of the 200-mer (PS2509) with the 22-mer primer (PS2508) pre-annealed to initiate the fill-in.
(§5) The incubation was done for 30 min at 65° C. for the Manta or 72° C. for the DeepVent, in a MiniAmp thermalCycler (Applied Biosystems) with lid at 105° C. to prevent evaporation.

Manta DNA polymerase = target: T3, Manta DNA polymerase (Geobacillus stearothermophilus, UniProt P52026); experiment: as above; format: biochemical; conditions: modified nucleotide replaces dTTP at 100%; 65° C., 30 min
T3 construct: Bst DNA Polymerase, Large Fragment (e.g., Manta®); purchased
T3 sequence (P52026 289-876 limits assumed): T1 sequence (P52026 289-876 limits assumed)
Experimental: as §1, §2, §3, §4, §5

pseudouridine-5′-triphosphate
KD (concentration of the modified dUTP required to produce 50% of fill in reaction) compared with dTTP (MANTA polymerase [1]): almost twice the KD of dTTP | distribution of each modified base in the final hairpin (MANTA polymerase [2]): equal distribution

O=c1[nH]c(=O)n([C@H]2C[C@H](O)[C@@H](COP(=O)(O)OP(=O)(O)OP(=O)(O)O)O2)cc1Cl [CldU, 5-chloro-2′-deoxyuridine-5′-triphosphate]
full length product in polymerisation reaction (DeepVent DNA polymerase): full length products were obtained | full length product in polymerisation reaction (Manta DNA polymerase): full length products were obtained

O=c1[nH]c(=O)n([C@H]2C[C@H](O)[C@@H](COP(=O)(O)OP(=O)(O)OP(=O)(O)O)O2)cc1F [FdU, 5-fluoro-2′-deoxyuridine-5′-triphosphate]
full length product in polymerisation reaction (DeepVent DNA polymerase): full length products were obtained | full length product in polymerisation reaction (Manta DNA polymerase): full length products were obtained
